“And” between values parts separate entries of the source, which are not always exact repeats. Equal entries are not always repeated.
System: patients with Amyotrophic Lateral Sclerosis (ALS)
Test: Phase 2 placebo controlled, randomized, double blind 12-week study, ALSFRS-R total score
Type: in vivo, human
Source text: Efficacy, Safety, Tolerability, Pharmacokinetics and Pharmacodynamics of Formula (I) in Patients with Amyotrophic Lateral Sclerosis • Protocol Title: A phase 2, proof-of-concept, placebo controlled, randomized, double blind study of compound of formula (I) to evaluate the efficacy, safety, tolerability, pharmacokinetics and pharmacodynamics in patients with Amyotrophic Lateral Sclerosis (ALS). • Study design: A phase 2, proof-of-concept, placebo controlled, randomized, double blind, 12-week study of compound of formula (I) to evaluate the efficacy, safety, pharmacokinetics, and pharmacodynamics in patients with Amyotrophic Lateral Sclerosis (ALS). • Study population: Male or female patients aged between 18-80 years (both inclusive at screening) with diagnosis of Amyotrophic Lateral Sclerosis who meet eligibility criteria • Number of Patients: Approximately 24 patients (06 patients in each arm) are enrolled. • Duration of Patient Participation: 114±5 Days (Including 28 days of screening)
• To measure the efficacy of the treatment using the slope of progression with the revised Amyotrophic Lateral Sclerosis Functional Rating Scale (ALSFRS-R)
• Change from baseline in the ALSFRS-R total score [Time Frame: From baseline to Week 12] […]

## CN1CCC[C@]1(C)/C=C/S(=O)(=O)NC(=O)Nc1c2c(cc3c1CCC3)CCC2 [formula (I)]
Baseline to Week 12, one line per patient, arm not given
  Change from baseline in the ALSFRS-R total score: −8 points and −1 points and 4 points and 0 points and 1 points and −3 points
Over 12 weeks, ALS patients
  ALSFRS-R score, result in words: stable and improved ALSFRS-R score in some patients
